Laboratory results reported in US20260240158A1, “MICROBIOCIDAL THIAZOLE DERIVATIVES” (SYNGENTA CROP PROTECTION AG, priority 2019, published 2026).
Where two headings read alike, the source gives them in different places.

How the values were obtained:
[1] = tested on: Mycosphaerella graminicola (Septoria tritici); test: Mycosphaerella graminicola (Septoria tritici) / liquid culture (Septoria blotch); format: cell-based; details: Zymoseptoria tritici, read-out: control of Mycosphaerella graminicola
[2] = tested on: Phaeosphaeria nodorum (Septoria nodorum); test: Phaeosphaeria nodorum (Septoria nodorum) / wheat / leaf disc preventative (glume blotch); format: in vivo; details: 200 ppm, 5-7 days after application, vs untreated control
Source text: Phaeosphaeria Nodorum (Septoria nodorum)/Wheat/Leaf Disc Preventative (Glume Blotch) Wheat leaf segments cv. […] The leaf disks are inoculated with a spore suspension of the fungus 2 days after application. […] P3.

Pyrenophora teres = Pyrenophora teres / barley / leaf disc preventative (net blotch); format: in vivo; details: 200 ppm, 5-7 days after application, vs untreated control
Source text: Pyrenophora teres/Barley/Leaf Disc Preventative (Net Blotch) Barley leaf segments cv. […] The leaf segments are inoculated with a spore suspension of the fungus 2 days after application. […] P5.

[3] = 20 ppm, liquid culture, growth inhibition photometrically 4-5 days after application, vs untreated control

CCCCNC(=O)c1nc(Nc2cnsc2)sc1C [Compound P1, N-butyl-2-(isothiazol-4-ylamino)-5-methyl-thiazole-4-carboxamide]
inhibition of growth at 20 ppm [1, 3]: ≥ 80%

Cc1sc(Nc2cnsc2)nc1C(=O)NCC(C)(C)C [Compound P2, N-(2,2-dimethylpropyl)-2-(isothiazol-4-ylamino)-5-methyl-thiazole-4-carboxamide]
inhibition of growth at 20 ppm [1, 3]: ≥ 80%

Cc1sc(Nc2cnsc2)nc1C(=O)NCCC(C)C [Compound P3, N-isopentyl-2-(isothiazol-4-ylamino)-5-methyl-thiazole-4-carboxamide]
inhibition of growth at 20 ppm [1, 3]: ≥ 80%
control of Phaeosphaeria nodorum [2]: at least 80%

Cc1sc(Nc2cnsc2)nc1C(=O)NC(C)c1ccccc1 (stereo not shown) [Compound P4, 2-(isothiazol-4-ylamino)-5-methyl-N-(1-phenylethyl) thiazole-4-carboxamide]
inhibition of growth at 20 ppm [1, 3]: ≥ 80%

Cc1sc(Nc2cnsc2)nc1C(=O)NC1CCC12CCCC2 (stereo not shown) [Compound P5, 2-(isothiazol-4-ylamino)-5-methyl-N-spiro 3.4 octan-3-yl-thiazole-4-carboxamide]
inhibition of growth at 20 ppm [1, 3]: ≥ 80%
control of Pyrenophora teres (Pyrenophora teres): at least 80%

Cc1sc(Nc2cnsc2)nc1C(=O)NC1CCC1(C)C (stereo not shown) [Compound P6, N-(2,2-dimethylcyclobutyl)-2-(isothiazol-4-ylamino)-5-methyl-thiazole-4-carboxamide]
inhibition of growth at 20 ppm [1]: ≥ 80%

COCC(=O)N(c1cnsc1)c1nc(C(=O)NC2CCC23CCCC3)c(C)s1 (stereo not shown) [Compound P8, 2-isothiazol-4-yl-(2-methoxyacetyl) amino-5-methyl-N-spiro 3.4 octan-3-yl-thiazole-4-carboxamide]
inhibition of growth at 20 ppm [1, 3]: ≥ 80%

Cc1sc(N(C#N)c2cnsc2)nc1C(=O)NC1CCC12CCCC2 (stereo not shown) [Compound P9, 2-cyano(isothiazol-4-yl)amino-5-methyl-N-spiro 3.4 octan-3-yl-thiazole-4-carboxamide]
inhibition of growth at 20 ppm [1, 3]: ≥ 80%
